Measured values: ChEMBL document CHEMBL1201862, “PubChem BioAssay data set” (2004)
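Following 48 hours of exposure in 96-well plates, responses at five concentrations were used to interpolate endpoints linearly. GI50 = concentration required for 50% inhibition of growth.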 Activity calls are given as the source filed them. Cut-off read from the data, not from the text of the source: active = GI50 up to about 1.1 µM and inactive = higher.

Key:
Test in all cases: inhibition of tumour cell growth, NCI panel, 48 h
786-0 = system: 786-0
A498 = system: A498
A549 = system: A549
ACHN = system: ACHN
BT-549 = system: BT-549
CAKI-1 = system: CAKI-1
CCRF-CEM = system: CCRF-CEM
COLO 205 = system: COLO 205
DU-145 = system: DU-145
EKVX = system: EKVX
HCC 2998 = system: HCC 2998
HCT-116 = system: HCT-116
HCT-15 = system: HCT-15
HL-60 = system: HL-60
HOP-62 = system: HOP-62
HOP-92 = system: HOP-92
HT-29 = system: HT-29
Hs-578T = system: Hs-578T
IGROV-1 = system: IGROV-1
K562 = system: K562
KM12 = system: KM12
LOX IMVI = system: LOX IMVI
M14 = system: M14
MCF7 = system: MCF7
MDA-MB-435 = system: MDA-MB-435
MDA-N = system: MDA-N
MOLT-4 = system: MOLT-4
Malme-3M = system: Malme-3M
NCI-H226 = system: NCI-H226
NCI-H23 = system: NCI-H23
NCI-H460 = system: NCI-H460
NCI/ADR-RES = system: NCI/ADR-RES
OVCAR-3 = system: OVCAR-3
OVCAR-4 = system: OVCAR-4
OVCAR-5 = system: OVCAR-5
OVCAR-8 = system: OVCAR-8
PC-3 = system: PC-3
RPMI-8226 = system: RPMI-8226
SF-268 = system: SF-268
SF-295 = system: SF-295
SF-539 = system: SF-539
SK-MEL-28 = system: SK-MEL-28
SK-MEL-2 = system: SK-MEL-2
SK-OV-3 = system: SK-OV-3
SN12C = system: SN12C
SNB-19 = system: SNB-19
SNB-75 = system: SNB-75
SW-620 = system: SW-620
T47D = system: T47D
TK-10 = system: TK-10
UACC-257 = system: UACC-257
UO-31 = system: UO-31
MDA-MB-231 = system: MDA-MB-231
NCI-H522 = system: NCI-H522
RXF 393 = system: RXF 393
SK-MEL-5 = system: SK-MEL-5
SR = system: SR
U-251 = system: U-251
UACC-62 = system: UACC-62

In the case of CC(C)=CCC[C@@H](C)C1=C(O)C(=O)C(C)=C(c2c(I)c(=O)n(C)c(=O)n2C)C1=O, the GI50 (786-0) is reported as > 100 µM (inactive), the GI50 (A498) is reported as > 100 µM (inactive) and the GI50 (A549) is reported as 61 µM (inactive). The GI50 (ACHN) was > 100 µM (inactive), the GI50 (BT-549) was > 100 µM (inactive) and the GI50 (CAKI-1) was > 100 µM (inactive). For the same molecule, the GI50 (CCRF-CEM) was > 100 µM (inactive), the GI50 (COLO 205) was > 100 µM (inactive) and the GI50 (DU-145) was > 100 µM (inactive). The GI50 (EKVX) was > 100 µM (inactive), the GI50 (HCC 2998) was > 100 µM (inactive) and the GI50 (HCT-116) was > 100 µM (inactive). The GI50 (HCT-15) was greater than 100 µM, the GI50 (HL-60) was 74.6 µM (inactive) and the GI50 (HOP-62) was > 100 µM (inactive). For the same molecule, the GI50 (HOP-92) was > 100 µM (inactive), the GI50 (HT-29) was > 100 µM (inactive) and the GI50 (Hs-578T) was 76.6 µM (inactive). The GI50 (IGROV-1) was 60.3 µM (inactive), the GI50 (K562) was 61.9 µM (inactive) and the GI50 (KM12) was > 100 µM (inactive). The GI50 (LOX IMVI) was > 100 µM (inactive), the GI50 (M14) was > 100 µM (inactive) and the GI50 (MCF7) was > 100 µM (inactive). For the same molecule, the GI50 (MDA-MB-435) was > 100 µM (inactive), the GI50 (MDA-N) was > 100 µM (inactive) and the GI50 (MOLT-4) was 36.8 µM (inactive). For the same molecule, the GI50 (Malme-3M) was > 100 µM (inactive), the GI50 (NCI-H226) was > 100 µM (inactive) and the GI50 (NCI-H23) was > 100 µM (inactive). For the same molecule, the GI50 (NCI-H460) was > 100 µM (inactive), the GI50 (NCI/ADR-RES) was > 100 µM (inactive) and the GI50 (OVCAR-3) was > 100 µM (inactive). The GI50 (OVCAR-4) was > 100 µM (inactive), the GI50 (OVCAR-5) was > 100 µM (inactive) and the GI50 (OVCAR-8) was > 100 µM (inactive). The GI50 (PC-3) was 49.7 µM (inactive), the GI50 (RPMI-8226) was 61 µM (inactive) and the GI50 (SF-268) was > 100 µM (inactive). The GI50 (SF-295) was > 100 µM (inactive), the GI50 (SF-539) was > 100 µM (inactive) and the GI50 (SK-MEL-28) was > 100 µM (inactive). The GI50 (SK-MEL-2) was > 100 µM (inactive), the GI50 (SK-OV-3) was > 100 µM (inactive) and the GI50 (SN12C) was > 100 µM (inactive). The GI50 (SNB-19) was > 100 µM (inactive), the GI50 (SNB-75) was > 100 µM (inactive) and the GI50 (SW-620) was > 100 µM (inactive). For the same molecule, the GI50 (T47D) was > 100 µM (inactive), the GI50 (TK-10) was > 100 µM (inactive) and the GI50 (UACC-257) was > 100 µM (inactive). For the same molecule, the GI50 (UO-31) was > 100 µM (inactive).
In the case of CCOC(=O)CSc1nc(-c2ccc(OC)cc2)c(C#N)c(=O)[nH]1, the GI50 (786-0) is reported as > 100 µM (inactive), the GI50 (A498) is reported as > 100 µM (inactive) and the GI50 (A549) is reported as > 100 µM (inactive). The GI50 (ACHN) was > 100 µM (inactive), the GI50 (BT-549) was > 100 µM (inactive) and the GI50 (CAKI-1) was > 100 µM (inactive). For the same molecule, the GI50 (CCRF-CEM) was > 100 µM (inactive), the GI50 (COLO 205) was > 100 µM (inactive) and the GI50 (DU-145) was > 100 µM (inactive). For the same molecule, the GI50 (EKVX) was > 100 µM (inactive), the GI50 (HCC 2998) was > 100 µM (inactive) and the GI50 (HCT-116) was > 100 µM (inactive). For the same molecule, the GI50 (HCT-15) was greater than 100 µM, the GI50 (HL-60) was 0.0495 µM (active) and the GI50 (HOP-62) was > 100 µM (inactive). The GI50 (HOP-92) was > 100 µM (inactive), the GI50 (HT-29) was > 100 µM (inactive) and the GI50 (Hs-578T) was > 100 µM (inactive). The GI50 (IGROV-1) was > 100 µM (inactive), the GI50 (K562) was > 100 µM (inactive) and the GI50 (KM12) was > 100 µM (inactive). For the same molecule, the GI50 (M14) was > 100 µM (inactive), the GI50 (MCF7) was > 100 µM (inactive) and the GI50 (MDA-MB-231) was > 100 µM (inactive). The GI50 (MDA-MB-435) was > 100 µM (inactive), the GI50 (MOLT-4) was > 100 µM (inactive) and the GI50 (NCI-H226) was > 100 µM (inactive). For the same molecule, the GI50 (NCI-H23) was > 100 µM (inactive), the GI50 (NCI-H460) was > 100 µM (inactive) and the GI50 (NCI-H522) was > 100 µM (inactive). For the same molecule, the GI50 (NCI/ADR-RES) was > 100 µM (inactive), the GI50 (OVCAR-3) was > 100 µM (inactive) and the GI50 (OVCAR-4) was > 100 µM (inactive). For the same molecule, the GI50 (OVCAR-5) was > 100 µM (inactive), the GI50 (OVCAR-8) was > 100 µM (inactive) and the GI50 (PC-3) was > 100 µM (inactive). The GI50 (RPMI-8226) was > 100 µM (inactive), the GI50 (RXF 393) was > 100 µM (inactive) and the GI50 (SF-268) was > 100 µM (inactive). The GI50 (SF-295) was > 100 µM (inactive), the GI50 (SF-539) was > 100 µM (inactive) and the GI50 (SK-MEL-28) was > 100 µM (inactive). The GI50 (SK-MEL-2) was > 100 µM (inactive), the GI50 (SK-MEL-5) was > 100 µM (inactive) and the GI50 (SK-OV-3) was > 100 µM (inactive). The GI50 (SN12C) was > 100 µM (inactive), the GI50 (SNB-19) was > 100 µM (inactive) and the GI50 (SNB-75) was > 100 µM (inactive). The GI50 (SR) was 84.9 µM (inactive), the GI50 (SW-620) was > 100 µM (inactive) and the GI50 (T47D) was > 100 µM (inactive). For the same molecule, the GI50 (TK-10) was > 100 µM (inactive), the GI50 (U-251) was > 100 µM (inactive) and the GI50 (UACC-257) was > 100 µM (inactive). The GI50 (UACC-62) was > 100 µM (inactive) and the GI50 (UO-31) was 51.9 µM (inactive).
